The text below walks through data of patent US12510533B2, “Methods for treating multiple myeloma and the use of companion biomarkers for 4-(4-(4-(((2-(2,6-dioxopiperidin-3-yl)-1-oxoisoindolin-4-yl)oxy)methyl)benzyl)piperazin-1-yl)-3-fluorobenzonitrile” (Celgene Corporation, priority 2018, dated 2025).

The structures appear in SMILES notation.

The test system of test [1] is sFLC. In words: Phase 1 study, serum free light chain (sFLC). Conditions: two subjects; during the first cycle of treatment. It counts as in vivo, human. From the text: This is an open-label, multi-center, international, Phase 1 study to assess the safety, PK/PD and preliminary efficacy of Compound 2 in combination with dexamethasone in subjects with RRMM.
Serum samples were taken before and during Compound 2 treatment at specified time points. Serum free light chain (sFLC) can be used as an efficacy measurement in multiple myeloma. The short half-life of sFLC provides an opportunity to follow the dynamic effect of compound treatment on disease burden. […] The extent of decrease from baseline and duration of the effect may predict response to treatment with Compound 2.

The test system of test [2] is H929-1051 and OPM2-P10 cells. In words: Apoptosis induction in H929-1051 and OPM2-P10 multiple myeloma cells. In kind it is cell-based, human. Conditions: 15 minute or 6 hour transient exposure. On the procedure:
FIG. 10 illustrates that continuous, but not transient, exposure to Compound 2 induced apoptosis in multiple myeloma cells. Apoptosis induction by Compound 2 treatment in a lenalidomide-resistant MM cell model (H929-1051 [top row] and a pomalidomide-resistant MM cell model OPM2-P10 [bottom row]) is presented.
The effect of Aiolos and Ikaros degradation on induction of apoptosis was also evaluated. The nearly complete and prolonged substrate suppression observed upon continuous exposure of Compound 2 coincided with apoptosis induction in MM cells (FIG. 10). A continuous single exposure to 0.01 and 0.1 μM Compound 2 led to induction of apoptosis in H929-1051 and OPM2-P10 cells (within 50 to 75 hours) (FIG. 10).

Test [3] concerns Ikaros and Aiolos. In words: Immunoblot of Ikaros and Aiolos in H929-1051 cells. It counts as cell-based, human. Conditions: within 4 hours. Here is the method: FIG. 6A and FIG. 6B illustrate that Compound 2 degraded Ikaros and Aiolos in a concentration dependent manner, which induced apoptosis and cell cycle arrest in pomalidomide-resistant multiple myeloma cells. Shown is immunoblot analysis of pomalidomide-resistant MM cells (H929-1051) incubated with Compound 2 for (FIG. 6A) 4 hours or (FIG. 6B) 72 hours.
Incubation with concentrations as low as 1 nM of Compound 2 promoted the robust degradation of Ikaros and Aiolos within 4 hours (FIG. 6A).
For orientation: Immunoblotting shows a protein as a band on a membrane.

The target in test [4] is Ikaros (Homo sapiens, UniProt Q13422+Q96SW2). In words: Ikaros degradation in CD8+ T cells. It counts as cell-based. On the set-up: The effects of Compound 2 on the degradation of Ikaros in CD4+ and CD8+ T cells; endogenous in cells; host or cells: CD4+ and CD8+ T cells of healthy donors; CD34+ bone marrow cells of healthy donors; CD3+ T cells of multiple myeloma patients. Conditions: 24 hours (data not shown), read-out: Ikaros degradation IC50. On the procedure: The effects of Compound 2 on the degradation of Ikaros in CD4+ and CD8+ T cells over a 72 hour time course were investigated. The ability of Compound 2 to induce effector cytokine release correlated with degradation of Ikaros in CD4+ T cells, a known transcriptional repressor of IL-2 (FIG. 22A-FIG. 22C). […] The ability of Compound 2 to degrade Ikaros was also observed at the 48 and 72 hour time point in both CD4+(FIG. 22B and FIG. 22C) and CD8+ (data not shown) T cell populations. […] Thus, Ikaros and Aiolos can serve as biomarkers of T-cell activation.
Chain of Ikaros (Q13422 whole entry): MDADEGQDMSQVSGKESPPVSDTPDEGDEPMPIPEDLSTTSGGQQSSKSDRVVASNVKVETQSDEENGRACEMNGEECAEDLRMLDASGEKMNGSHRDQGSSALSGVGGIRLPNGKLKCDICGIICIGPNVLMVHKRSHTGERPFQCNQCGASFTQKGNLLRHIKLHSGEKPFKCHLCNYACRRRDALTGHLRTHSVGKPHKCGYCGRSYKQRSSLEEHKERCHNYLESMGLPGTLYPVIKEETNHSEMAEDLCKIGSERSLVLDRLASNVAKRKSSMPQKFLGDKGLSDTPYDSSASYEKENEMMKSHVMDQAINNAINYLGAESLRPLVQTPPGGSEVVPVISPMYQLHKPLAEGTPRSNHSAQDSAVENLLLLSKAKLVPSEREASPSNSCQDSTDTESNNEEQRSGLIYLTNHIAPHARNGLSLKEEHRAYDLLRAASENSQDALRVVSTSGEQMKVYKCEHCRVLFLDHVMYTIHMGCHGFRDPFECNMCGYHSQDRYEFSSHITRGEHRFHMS
Chain of Ikaros (Q16531 2-1140, further chain): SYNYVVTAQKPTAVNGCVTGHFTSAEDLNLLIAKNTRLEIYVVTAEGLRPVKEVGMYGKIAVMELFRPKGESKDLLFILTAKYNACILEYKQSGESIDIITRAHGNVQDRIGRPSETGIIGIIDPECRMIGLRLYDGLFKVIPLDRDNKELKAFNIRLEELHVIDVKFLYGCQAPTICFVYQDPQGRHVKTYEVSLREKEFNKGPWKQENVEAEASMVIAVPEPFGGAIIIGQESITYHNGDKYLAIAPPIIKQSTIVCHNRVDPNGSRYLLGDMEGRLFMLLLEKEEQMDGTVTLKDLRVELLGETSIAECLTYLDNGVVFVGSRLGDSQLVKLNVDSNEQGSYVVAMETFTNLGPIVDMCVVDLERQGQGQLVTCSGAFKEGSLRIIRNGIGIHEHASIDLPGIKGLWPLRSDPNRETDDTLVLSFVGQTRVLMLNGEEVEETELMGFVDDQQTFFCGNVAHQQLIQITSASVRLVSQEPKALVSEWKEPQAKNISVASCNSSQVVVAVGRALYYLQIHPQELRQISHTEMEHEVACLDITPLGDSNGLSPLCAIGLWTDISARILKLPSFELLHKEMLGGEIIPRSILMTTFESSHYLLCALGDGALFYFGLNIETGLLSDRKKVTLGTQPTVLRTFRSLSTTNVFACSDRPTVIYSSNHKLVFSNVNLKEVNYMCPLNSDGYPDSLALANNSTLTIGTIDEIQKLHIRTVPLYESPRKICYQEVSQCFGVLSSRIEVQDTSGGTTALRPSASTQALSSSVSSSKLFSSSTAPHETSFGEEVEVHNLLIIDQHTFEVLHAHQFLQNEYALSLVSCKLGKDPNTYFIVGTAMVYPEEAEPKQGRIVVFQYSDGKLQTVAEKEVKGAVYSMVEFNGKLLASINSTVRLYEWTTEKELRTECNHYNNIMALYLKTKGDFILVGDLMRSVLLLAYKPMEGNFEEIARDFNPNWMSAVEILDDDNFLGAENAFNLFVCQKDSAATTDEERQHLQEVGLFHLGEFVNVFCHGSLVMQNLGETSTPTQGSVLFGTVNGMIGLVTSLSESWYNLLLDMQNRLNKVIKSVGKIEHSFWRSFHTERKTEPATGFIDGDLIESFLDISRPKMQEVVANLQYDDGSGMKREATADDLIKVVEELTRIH
Chain of Ikaros (Q96SW2 whole entry): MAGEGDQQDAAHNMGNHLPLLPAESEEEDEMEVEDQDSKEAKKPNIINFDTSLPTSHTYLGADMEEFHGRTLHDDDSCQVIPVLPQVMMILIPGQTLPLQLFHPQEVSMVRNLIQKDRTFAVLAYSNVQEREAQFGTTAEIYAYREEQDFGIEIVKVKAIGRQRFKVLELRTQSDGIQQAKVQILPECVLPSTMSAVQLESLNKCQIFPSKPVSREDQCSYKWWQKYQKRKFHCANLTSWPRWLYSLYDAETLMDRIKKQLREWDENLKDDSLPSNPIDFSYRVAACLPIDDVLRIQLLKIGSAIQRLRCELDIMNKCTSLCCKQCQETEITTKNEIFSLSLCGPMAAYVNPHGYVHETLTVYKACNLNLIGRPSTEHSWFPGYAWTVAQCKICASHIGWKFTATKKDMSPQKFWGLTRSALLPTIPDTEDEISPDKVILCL

Test [5] concerns H929-1051 cells. In words: PBMC-induced MM cell lysis, PBMCs and MM cells both pretreated, versus single MM culture (H929-1051). In kind it is cell-based, human. Conditions: PBMCs and MM cells both preincubated 72 hours. On the procedure:
Ninety-six-well dishes were pre-coated with anti-CD3 antibody (OKT3, 3 μg/mL) and incubated at 4° C. overnight before the start of the experiment. Frozen PBMC donor cells were thawed at 37° C. for 2 minutes in RPMI medium with 10% FBS and cell counts and viability were measured on the Vi-CELL analyzer. Peripheral blood mononuclear cells were washed and diluted to 1×10^6 cells/mL and dispensed into the compound-treated plates in a total volume of 200 μL. Cells were incubated with Compound 2 for 2 hours before being transferred onto anti-CD3-coated plates and incubated for an additional 72 hours. At the same time, MM cell lines (NCI-H929, H929-1051, OPM2, OPM2-P10) were diluted to a final concentration of 0.1×10^6 cells/mL and labeled with CellTrace CFSE according to manufacturer's instructions. Multiple myeloma cell lines were then dispensed into compound-treated plates at a total volume of 200 μL and incubated for 72 hours. After 72 hours, the PBMCs and MM cells were counted and transferred into a U-bottom 96-well plate at a final T:E ratio of 1:5. After 24 hours coculture, specific target cell lysis by PBMC mediated apoptosis was measured using Annexin V-AF647 and 7-AAD according to manufacturer's instructions and samples were run on the Attune NxT Cytometer. […]

In test [6] the target is T1, Aiolos (Homo sapiens, UniProt Q96SW2+Q9UKT9).
T1 construct: expressed in transfected cells; host or cells: DF15 multiple myeloma cells
T1 sequence (Q9UKT9 whole entry): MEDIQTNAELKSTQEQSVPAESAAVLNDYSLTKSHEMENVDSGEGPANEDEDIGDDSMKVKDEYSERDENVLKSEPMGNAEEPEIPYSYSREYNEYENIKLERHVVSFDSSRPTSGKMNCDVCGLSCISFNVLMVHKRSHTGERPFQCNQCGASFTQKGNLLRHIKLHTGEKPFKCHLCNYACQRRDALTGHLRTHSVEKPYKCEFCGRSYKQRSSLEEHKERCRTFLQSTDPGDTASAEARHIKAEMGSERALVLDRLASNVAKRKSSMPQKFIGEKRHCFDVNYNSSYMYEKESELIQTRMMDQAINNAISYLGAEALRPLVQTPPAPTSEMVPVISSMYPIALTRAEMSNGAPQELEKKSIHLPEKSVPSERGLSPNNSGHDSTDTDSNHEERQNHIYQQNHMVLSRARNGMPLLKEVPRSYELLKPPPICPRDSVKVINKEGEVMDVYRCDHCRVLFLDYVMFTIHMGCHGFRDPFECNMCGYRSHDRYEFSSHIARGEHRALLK
T1 sequence (Q96SW2 whole entry): as the sequence (Q96SW2 whole entry) above
T1 sequence (Q16531 2-1140, further chain): as the sequence (Q16531 2-1140, further chain) above
In words: Phase 1 study, Aiolos expression by flow cytometry in CD3+ T cells. It counts as in vivo. Conditions: QD days 1-10, 15-24/28 and BID days 1-3, 15-17/28; recovered during dosing interruptions. Here is the method: FIG. 24A and FIG. 24B illustrate that Compound 2 induces Aiolos degradation in CD3+ T cells from peripheral blood of relapsed/refractory multiple myeloma patients after (FIG. 24A) the once daily (QD) 1-10, 15-24/28 schedule, or (FIG. 24B) the twice daily (BID) 1-3, 15-17/28 schedule.
Aiolos expression was measured by flow cytometry in CD3+ T cells before and during Compound 2 treatment in two different dosing schedules (QD administration on days 1 to 10 and days 15 to 24 of a 28 day cycle, and BID administration on days 1 to 3 and days 15 to 17 of a 28 day cycle).
(In general: Flow cytometry measures light scatter and fluorescence of single cells or particles in a stream.)

In the case of `N#Cc1ccc(N2CCN(Cc3ccc(COc4cccc5c4CN([C@H]4CCC(=O)NC4=O)C5=O)cc3)CC2)c(F)c1` [Compound 2, (S)-4-(4-(4-(((2-(2,6-dioxopiperidin-3-yl)-1-oxoisoindolin-4-yl)oxy)methyl)benzyl)piperazin-1-yl)-3-fluorobenzonitrile], the “decrease in sFLC” value in test [1] is reported as greater than 80%. Further, the “effect of transient exposure on apoptosis” value in test [2] was “precluded the induction of apoptosis”. For the same molecule, the “lowest concentration promoting robust degradation of Ikaros and Aiolos” value in test [3] is given as 1 nM. For the same molecule, in test [4], the DC50 was determined as 0.5 nM. In addition, the “enhancement of killing, IC50 of single MM culture versus immune and tumor cell co-culture” value in test [5] was roughly 6000 fold. In test [6], the “Aiolos degradation in CD3+ T cells” value is “dose dependent”.
